pIC50: −log10 of the molar value.
How the values were obtained:
[1] = Assay B: Microsomal clearance; type: in vitro ADME, human; details: pooled liver microsomes 1 mg/ml, 1 μM compound, NADPH, 37° C.; clearance as % of hepatic blood flow
Procedure: Assay B: Microsomal Clearance:
The metabolic degradation of the test compound is assayed at 37° C. with pooled liver microsomes. The final incubation volume of 100 μl per time point contains TRIS buffer pH 7.6 at RT (0.1 M), magnesium chloride (5 mM), microsomal protein (1 mg/ml) and the test compound at a final concentration of 1 μM.
Following a short preincubation period at 37° C., the reactions are initiated by addition of beta-nicotinamide adenine dinucleotide phosphate, reduced form (NADPH, 1 mM) and terminated by transferring an aliquot into solvent after different time points (0, 5, 15, 30, 60 min). Additionally, the NADPH-independent degradation is monitored in incubations without NADPH, terminated at the last time point. The [%] remaining test compound after NADPH independent incubation is reflected by the parameter c(control) (metabolic stability). The quenched incubations are pelleted by centrifugation (10000 g, 5 min).
An aliquot of the supernatant is assayed by LC-MS/MS for the amount of parent compound. The half-life (t½ INVITRO) is determined by the slope of the semilogarithmic plot of the concentration-time profile.
The intrinsic clearance (CL_[…]) is calculated by considering the amount of protein in the incubation: CL_[…] [μl/min/mg protein]=(Ln 2/(half-life [min]*protein content [mg/ml]))*1000 CL_[…]_INVIVO [ml/min/kg]=(CL_[…] [μL/min/mg protein]×MPPGL [mg protein/g liver]×liver factor [g/kg bodyweight])/1000 Qh[%]=CL[ml/min/kg]/hepatic blood flow [ml/min/kg])
(§1) Hepatocellularity, human: 120×10e6 cells/g liver
(§2) Liver factor, human: 25.7 g/kg bodyweight
(§3) Blood flow, human: 21 ml/(min×kg)

human TRPA1 ion channel = target: T1, human TRPA1 ion channel (Homo sapiens, UniProt O75762); experiment: Assay A: TRPA1 assay (FLIPR, AITC-induced calcium, HEK293 cells); type: cell-based; details: read-out: hTRPA1 IC50
T1 construct: host or cells: HEK293
T1 sequence (O75762 whole entry): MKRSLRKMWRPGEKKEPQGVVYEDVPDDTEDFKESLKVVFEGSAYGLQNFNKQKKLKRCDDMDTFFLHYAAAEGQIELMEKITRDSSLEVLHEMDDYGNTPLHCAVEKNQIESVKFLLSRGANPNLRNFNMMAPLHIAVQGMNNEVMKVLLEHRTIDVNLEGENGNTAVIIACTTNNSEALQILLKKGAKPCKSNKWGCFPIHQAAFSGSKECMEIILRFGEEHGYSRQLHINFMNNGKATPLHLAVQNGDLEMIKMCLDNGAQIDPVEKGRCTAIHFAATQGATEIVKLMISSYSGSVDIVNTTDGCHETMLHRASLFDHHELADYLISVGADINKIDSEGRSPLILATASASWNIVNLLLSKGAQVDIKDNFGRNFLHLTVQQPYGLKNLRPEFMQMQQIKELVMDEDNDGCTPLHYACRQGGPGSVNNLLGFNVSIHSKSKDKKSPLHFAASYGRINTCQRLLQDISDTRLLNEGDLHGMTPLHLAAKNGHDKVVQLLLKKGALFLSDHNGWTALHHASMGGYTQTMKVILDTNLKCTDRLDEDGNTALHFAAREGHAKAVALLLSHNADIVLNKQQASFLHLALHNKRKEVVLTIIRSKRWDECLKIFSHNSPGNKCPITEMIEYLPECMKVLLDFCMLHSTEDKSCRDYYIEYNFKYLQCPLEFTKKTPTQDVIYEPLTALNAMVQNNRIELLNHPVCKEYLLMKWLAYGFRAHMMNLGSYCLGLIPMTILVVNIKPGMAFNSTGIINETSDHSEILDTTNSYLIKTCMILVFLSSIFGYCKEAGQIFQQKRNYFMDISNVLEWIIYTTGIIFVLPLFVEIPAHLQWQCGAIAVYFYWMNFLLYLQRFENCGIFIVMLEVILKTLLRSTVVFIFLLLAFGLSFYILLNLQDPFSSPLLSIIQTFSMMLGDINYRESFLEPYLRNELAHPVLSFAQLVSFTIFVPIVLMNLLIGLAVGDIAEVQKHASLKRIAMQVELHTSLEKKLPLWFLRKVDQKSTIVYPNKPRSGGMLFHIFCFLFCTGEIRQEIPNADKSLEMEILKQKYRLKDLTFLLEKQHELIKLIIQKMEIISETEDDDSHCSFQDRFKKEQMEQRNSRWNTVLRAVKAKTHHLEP
Procedure: A human HEK293 cell line over-expressing the human TRPA1 ion channel (Perkin Elmer, Product No. AX-004-PCL) is used as a test system for compound efficacy and potency. Compound activity is determined by measuring the effect of compounds on intracellular calcium concentration induced by AITC (Allylisothiocyanat) agonism in a FLIPRtetra system (Molecular Devices).
The cells are obtained as frozen cells in cryo-vials and stored until use at −150° C. Cells are grown in culture medium (MEM/EBSS medium with 10% FCS and 0.4 mg/ML Geneticin). […] For sub-culturing cells are detached from flasks by Versene. At the day before the assay, cells are detached, washed twice with medium (MEM/EBSS medium with 10% FCS) and 20000 cells in 20 μl/well are seeded to Poly D-Lysin biocoated 384-well plates (black, clear bottom, Cat. 356697) from Corning. Plates are incubated for 24 hours at 37° C./5% CO2 before use in the assay.
The test compounds are dissolved in 100% DMSO at a concentration of 10 mM and in a first step diluted in DMSO to a concentration of 5 mM, followed by serial dilution steps in 100% DMSO. Dilution factor and number of dilution steps may vary according to needs. Typically 8 different concentrations by 1:5 dilutions are prepared, further intermediate dilutions (1:20) of the substances are carried out with HBSS/HEPES buffer (1×HEPES, Cat. 14065 from Gibco, 20 mM HEPES, Cat. 83264 from SIGMA, 0.1% BSA Cat. 11926 from Invitrogen, pH 7.4
At the assay day cells are washed 3× with assay puffer, 20 μL buffer remaining in the wells after washing. 10 μL Ca6 kit (Cat. R8191 MolecularDevices) loading buffer in HBSS/HEPES is added to the cells and the plates are incubated with lid for 120 minutes at 37°/5% CO2. 10 μL of compound or controls in HBSS/HEPES buffer/5% DMSO from the intermediate dilution plate are carefully added to the wells. […] Finally 10 μL of the agonist AITC 50 μM dissolved in HBSS/HEPES buffer/0.05% DMSO (final concentration 10 μM) is added to the wells followed by an additional read on the FLIPRtetra device for 10 minutes. The area under the signal curve (AUC) after AITC addition is used for IC50/% inhibition calculations
Data Evaluation and Calculation:
Each assay microtiter plate contains wells with vehicle (1% DMSO) controls instead of compound as controls for AITC induced luminescence (100% CTL; high controls) and wells with vehicle controls without AITC as controls for non-specific changes in luminescence (0% CTL; low controls).
The analysis of the data is performed by the calculation of the area under signal curve of the individual wells. Based on this values the % value for the measurement of each substance concentration is calculated (AUC(sample)−AUC(low))*100/(AUC(high)−AUC(low)) using MegaLab software (in house development). The IC50 values are calculated from the % control values using MegaLab software. Calculation: [y=(ad)/(1+(x/c)^b)+d], a=low value, d=high value; x=conc M; c=IC50 M; b=hill; y=% ctrl

[2] = Assay C: Hepatocyte clearance; type: in vitro ADME, human; details: hepatocyte suspension, 1 μM compound, 6 h; predicted clearance as % of hepatic blood flow
Procedure: Assay C: Hepatocyte Clearance
The metabolic degradation of the test compound is assayed in a hepatocyte suspension. Hepatocytes (cryopreserved) are incubated in Dulbecco's modified eagle medium (supplemented with 3.5 μg glucagon/500 mL, 2.5 mg insulin/500 mL and 3.75 mg/500 mL hydrocortison) containing 5% or 50% species serum.
The cells are incubated for six hours (incubator, orbital shaker) and samples ([…]) are taken at 0, 0.5, 1, 2, 4 and 6 hours. Samples are transferred into acetonitrile and pelleted by centrifugation (5 min). The supernatant is transferred to a new 96-deepwell plate, evaporated under nitrogen and resuspended.
Decline of Parent Compound is Analyzed by HPLC-MS/MS
CLint is calculated as follows CL_[…]=Dose/AUC=(C0/CD)/(AUD+clast/k)×1000/60. C0: initial concentration in the incubation [μM], CD: cell density of vital cells [10e6 cells/mL], AUD: area under the data [μM×h], clast: concentration of last data point [μM], k: slope of the regression line for parent decline [h−1].
The calculated in vitro hepatic intrinsic clearance can be scaled up to the intrinsic in vivo hepatic Clearance and used to predict hepatic in vivo blood clearance (CL) by the use of a liver model (well stirred model). CL_[…]_INVIVO [ml/min/kg]=(CL_[…] [μL/min/10e6 cells]×hepatocellularity [10e6 cells/g liver]×liver factor [g/kg bodyweight])/1000 CL[ml/min/kg]=CL_[…]_INVIVO [ml/min/kg]×hepatic blood flow [ml/min/kg]/(CL_[…]_INVIVO [ml/min/kg]+hepatic blood flow [ml/min/kg]) Qh[%]=CL[ml/min/kg]/hepatic blood flow [ml/min/kg])
as §1, §2, §3

Row | SMILES | human LM [% Qh] [1] | pIC50 (human TRPA1 ion channel) | human Hepatocytes [% Qh] [2]
1 | Cn1c(=O)c(C(N)=O)cn(Cc2nnn(C[C@H](O)c3ccc(C#N)s3)n2)c1=O [Example 14] | <23 % Qh | 6.81 | 4 % Qh
2 | Cn1c(=O)c(C(N)=O)cn(Cc2nnn(C[C@H](O)c3ccc(Br)cc3)n2)c1=O [Example 7] | <23 % Qh | 7.25 | <4 % Qh
3 | Cn1c(=O)c(C(N)=O)cn(Cc2nnn(C[C@H](O)c3cc4ccccc4s3)n2)c1=O [Example 2] | <23 % Qh | 7.74 | 13 % Qh
4 | Cn1c(=O)c(C(N)=O)cn(Cc2nnn(C[C@H](O)c3ccc(Cl)cc3)n2)c1=O [Example 1, 1-({2-[(2R)-2-(4-chlorophenyl)-2-hydroxyethyl]-2H-1,2,3,4-tetrazol-5-yl}methyl)-3-methyl-2,4-dioxo-1,2,3,4-tetrahydropyrimidine-5-carboxamide] | <23 % Qh | 7.40 | <4 % Qh
5 | Cn1c(=O)c(C(N)=O)cn(Cc2nnn(C[C@H](O)c3ccc(Cl)s3)n2)c1=O [Example 10] | <23 % Qh | 7.04 | 15 % Qh
6 | Cn1c(=O)c(C(N)=O)cn(Cc2nnn(C[C@H](O)c3cc4ccc(F)cc4o3)n2)c1=O [Example 12] | <23 % Qh | 6.96 | 16 % Qh
7 | Cc1ccc([C@@H](O)Cn2nnc(Cn3cc(C(N)=O)c(=O)n(C)c3=O)n2)cc1 [Example 13] | <23 % Qh | 6.91 | <4 % Qh
8 | Cn1c(=O)c(C(N)=O)cn(Cc2nnn(C[C@H](O)c3cc4ccccc4o3)n2)c1=O [Example 9] | <23 % Qh | 7.14 | 7 % Qh
9 | Cn1c(=O)c(C(N)=O)cn(Cc2nnn(C[C@H](O)c3cc(Cl)c(Cl)s3)n2)c1=O [Example 5] | <23 % Qh | 7.59 | 43 % Qh

The remaining lines, values ahead:

Row | human LM [% Qh] [1] | pIC50 (human TRPA1 ion channel) | human Hepatocytes [% Qh] [2] | SMILES
10 | 43 % Qh | 6.53 | 44 % Qh | CCNC(=O)c1cn(Cc2nnn(C[C@H](O)c3ccc(Cl)cc3)n2)c(=O)n(C)c1=O [Example 34]
11 | 55 % Qh | 7.37 | 42 % Qh | CN1CCOCC1CNC(=O)c1cn(Cc2nnn(C[C@H](O)c3ccc(Cl)cc3)n2)c(=O)n(C)c1=O (stereo partly drawn) [Example 25]
12 | <23 % Qh | 7.19 | 15 % Qh | NC(=O)c1cn(Cc2nnn(C[C@H](O)c3ccc(Cl)cc3)n2)c(=O)n(CC2CC2)c1=O [Example 20]
13 | 57 % Qh | 6.94 | 28 % Qh | Cn1c(=O)c(C(=O)NCCF)cn(Cc2nnn(C[C@H](O)c3ccc(Cl)cc3)n2)c1=O [Example 33]
14 | <23 % Qh | 6.73 | <4 % Qh | Cn1c(=O)c(C(=O)NCCS(C)(=O)=O)cn(Cc2nnn(C[C@H](O)c3ccc(Cl)cc3)n2)c1=O [Example 28]
15 | 53 % Qh | 6.64 | 27 % Qh | Cn1c(=O)c(C(=O)NCCn2ccnc2)cn(Cc2nnn(C[C@H](O)c3ccc(Cl)cc3)n2)c1=O [Example 29]
16 | 28 % Qh | 7.36 | 9 % Qh | Cn1c(=O)c(C(=O)NCCOC(F)(F)F)cn(Cc2nnn(C[C@H](O)c3ccc(Cl)cc3)n2)c1=O [Example 30]
17 | <23 % Qh | 7.17 | 4 % Qh | Cn1c(=O)c(C(=O)NCC(F)(F)F)cn(Cc2nnn(C[C@H](O)c3ccc(Cl)cc3)n2)c1=O [Example 31]
18 | <23 % Qh | 6.85 | 17 % Qh | CNC(=O)c1cn(Cc2nnn(C[C@H](O)c3ccc(Cl)cc3)n2)c(=O)n(C)c1=O [Example 27]
19 | 38 % Qh | 7.41 | 28 % Qh | Cn1c(=O)c(C(=O)NCCN2CCOCC2)cn(Cc2nnn(C[C@H](O)c3ccc(Cl)cc3)n2)c1=O [Example 24]
20 | 52 % Qh | 7.00 | 21 % Qh | Cn1ccnc1CNC(=O)c1cn(Cc2nnn(C[C@H](O)c3ccc(Cl)cc3)n2)c(=O)n(C)c1=O [Example 26]
21 | 42 % Qh | 6.67 | 49 % Qh | CC(C)Cn1c(=O)c(C(N)=O)cn(Cc2nnn(C[C@H](O)c3ccc(Cl)cc3)n2)c1=O [Example 17]

Reference: US11884652B2, “Tetrazole derivatives as TRPA1 inhibitors” (Boehringer Ingelheim International GmbH, priority 2020, dated 2024)
